In general, IC50 refers to the concentration that gives 50% inhibition. Higher therefore signals weaker potency. Broadly, the melting point is the temperature of the solid-liquid transition.

The values below come from US10011614B2, “Bis-β-carboline compound and preparation method, pharmaceutical composition and use thereof” (XINJIANG HUASHIDAN PHARMACEUTICAL RESEARCH CO., LTD., priority 2012, dated 2018).

Structures are written as SMILES.

Data set [1] deals with BGC (human gastric cancer cells). Nature of the data set: Antitumor screening in vitro, MTT assay, BGC. In kind it is cell-based. The conditions noted are these: 48 hours. How it is done: (§1) Cell lines: BGC (human gastric cancer cells), A375 (human malignant melanoma cells), 769-P (human renal carcinoma cells), KB (human oral epidermoid carcinoma cells), SK-OV-3 (human ovarian cancer cells), etc, were selected, and the test method was the MTT assay. Cisplatin was as a positive control.
(§2) Specific methods are as follows: cells growing well in the logarithmic phase were seeded in 96-well plates at a concentration of 1×10^4 cells/ml, and then were placed in 37° C., containing 5% CO2 incubator for 24 hours. After discarding the old solution, changed fresh medium, and added sterilization treatment compound, and then cultured for 48 hours. After discarding the culture medium, 20 ul RPMI1640 medium containing 5 mg/ml MTT were added to each well in 96-well plates and cells were cultured for 4 hours. After the supernatant was carefully removed, 100 μl DMSO was added to each well, and the plates were Oscillated about 10 min to dissolve the precipitate, followed by detecting OD value in wavelength 490 nm by the microplate reader. Cell survival rate for each sample concentrations was determined by the following formula: The mean survival rate %=the average OD value of sample group/the average OD value of control group×100%
(§3) Morphological studies by mapping with the logarithm of the drug concentration and the mean survival rate % of each sample to obtain IC50 values for each sample.
Background: Formazan colour is commonly taken as a measure of viable cells.

The test system of data set [2] is A375 (human malignant melanoma cells). Nature of the data set: Antitumor screening in vitro, MTT assay, A375. The data set is classed as cell-based. As to the method:
as §1, §2, §3

The test system of data set [3] is 769-P (human renal carcinoma cells). Nature of the data set: Antitumor screening in vitro, MTT assay, 769-P. In kind it is cell-based. As to conditions: 48 hours, 769-P cells. How it is done:
as §1, §2, §3

Data set [4] has as its system KB (human oral epidermoid carcinoma cells). The data set can be described thus: Antitumor screening in vitro, MTT assay, KB. In kind it is cell-based. The conditions noted are these: 48 hours. As to the method: as §1, §2, §3
Data set [5] concerns SK-OV-3 (human ovarian cancer cells). Nature of the data set: Antitumor screening in vitro, MTT assay, SK-OV-3. In kind it is cell-based. The conditions noted are these: 48 hours, SK-OV-3 cells. How it is done:
as §1, §2, §3

On to `N.N.[Cl][Pt][Cl]` [Cisplatin, reference compound], for which the IC50 in data set [1] was determined as 17.3 µM; in data set [2] (48 hours) it was 39.2 µM; in data set [3], 11.6 µM; in data set [4] it was 13.1 µM; in data set [5], 4.2 µM.

As to `c1ccc2c(c1)c1ccncc1n2CCCCCn1c2ccccc2c2ccncc21` [Compound 2, 1,5-bis(β-carboline-9-yl)pentane], the IC50 is 23.5 µM in data set [1] (Homo sapiens); 10.2 µM in data set [2] (Homo sapiens, A-375, 48 hours); 15.3 µM in data set [3] (Homo sapiens); over 300 µM in data set [4] (Homo sapiens); over 300 µM in data set [5] (Homo sapiens).

On to `c1ccc2c(c1)c1ccncc1n2CCCCCCn1c2ccccc2c2ccncc21` [Compound 3, 1,6-bis(β-carboline-9-yl) hexane], for which the IC50 was 13.8 µM in data set [1] (Homo sapiens); 10.8 µM in data set [2] (Homo sapiens, A-375, 48 hours); 12.8 µM in data set [3] (Homo sapiens); 13.9 µM in data set [4] (Homo sapiens); 38.9 µM in data set [5] (Homo sapiens).

Take `c1ccc2c(c1)c1ccncc1n2CCCCCCCn1c2ccccc2c2ccncc21` [Compound 4, 1,7-bis(11-carboline-9-yl) heptane]: the IC50 is over 300 µM in data set [1]; 286 µM in data set [2] (48 hours); 53 µM in data set [3]; over 300 µM in data set [4]; 212 µM in data set [5].

`c1ccc2c(c1)c1ccncc1n2CCCCCCCCn1c2ccccc2c2ccncc21` [Compound 5, 1,8-bis(β-carboline-9-yl) octane] showed a melting point of 180 to 181 °C. The compound further registered an IC50 in data set [1] (Homo sapiens) of over 300 µM. The same compound returned a half-maximal inhibitory concentration (IC50) in data set [2] (Homo sapiens, A-375, 48 hours) of 285 µM. Moreover, the IC50 in data set [3] (Homo sapiens) is over 300 µM. In data set [4] (Homo sapiens), this compound gave an IC50 of over 300 µM. Moreover, the IC50 in data set [5] (Homo sapiens) came out at 33.5 µM.

In the case of `COc1ccc2c3ccnc(C)c3n(CCCCCCCC(C)n3c4cc(OC)ccc4c4ccnc(C)c43)c2c1` (stereo not drawn) [Compound 18, 1,8-bis(7-methoxy-1-methyl-β-carboline-9-yl) nonane], the IC50 in data set [1] (Homo sapiens) was 104 µM; in data set [2] (Homo sapiens, A-375, 48 hours) it was 113 µM; in data set [3] (Homo sapiens), 114 µM; in data set [4] (Homo sapiens), 38.6 µM; in data set [5] (Homo sapiens) it was 10.2 µM.

As to `COc1cc(-c2nccc3c4ccccc4n(CCCCCCCn4c5ccccc5c5ccnc(-c6cc(OC)c(OC)c(OC)c6)c54)c23)cc(OC)c1OC` [Compound 20, 1,7-bis[1-(3,4,5-trimethoxy)phenyl-β-carboline-9-yl) heptane], the IC50 was over 300 µM in data set [1]; 4 µM in data set [2] (48 hours); 3.3 µM in data set [3]; 7.6 µM in data set [4]; over 300 µM in data set [5].

Regarding `CCCCOc1ccc2c3ccnc(C)c3n(CCCCCCn3c4cc(OCCCC)ccc4c4ccnc(C)c43)c2c1` [Compound 24, 1,6-bis(7-n-butoxy-1-methyl-β-carboline-9-yl) hexane], the IC50 in data set [1] (Homo sapiens) is over 300 µM; in data set [2] (Homo sapiens, A-375, 48 hours), over 300 µM; in data set [3] (Homo sapiens) it was 56 µM; in data set [4] (Homo sapiens), over 300 µM; in data set [5] (Homo sapiens) it was over 300 µM.

Regarding `Cc1nccc2c3ccc(OC(C)C)cc3n(CCCCCCn3c4cc(OC(C)C)ccc4c4ccnc(C)c43)c12` [Compound 25, 1,6-bis(7-isopropoxy-1-methyl-β-carboline-9-yl) hexane], the IC50 in data set [1] (Homo sapiens) came to 194 µM; in data set [2] (Homo sapiens, A-375, 48 hours), 18.5 µM; in data set [3] (Homo sapiens), 95.4 µM; in data set [4] (Homo sapiens), 19.8 µM; in data set [5] (Homo sapiens), 17.1 µM.

With `CCOC(=O)c1cc2c3ccccc3n(CCCCCCCCCn3c4ccccc4c4cc(C(=O)OCC)nc(-c5cc(OC)c(OC)c(OC)c5)c43)c2c(-c2cc(OC)c(OC)c(OC)c2)n1` [Compound 28, 1,9-bis[1-(3,4.5-trimethoxy)phenyl-β-carboline-3-ethyoxylcarbonyl-9-yl]nonane], the IC50 in data set [1] is over 300 µM; in data set [2] (48 hours) it was 218 µM; in data set [3] it was 44.6 µM; in data set [4], over 300 µM; in data set [5], over 300 µM.

As to `CCOC(=O)c1cc2c3ccccc3n(CCCCCn3c4ccccc4c4cc(C(=O)OCC)nc(-c5cccnc5)c43)c2c(-c2cccnc2)n1` [Compound 29, 1,5-bis[3-ethyoxylcarbonyl-1-(pyridine-3-yl)-β-carboline-9-yl]pentane], the IC50 is 24.1 µM in data set [1]; 13 µM in data set [2] (48 hours); 132 µM in data set [3]; 15.7 µM in data set [4]; over 300 µM in data set [5].

Take `CCOC(=O)c1cc2c3ccccc3n(CCCCCCn3c4ccccc4c4cc(C(=O)OCC)nc(-c5cccnc5)c43)c2c(-c2cccnc2)n1` [Compound 30, 1,6-bis[3-ethyoxylcarbonyl-1-(pyridine-3-yl)-β-carboline-9-yl]hexane]: the IC50 in data set [1] is over 300 µM; in data set [2] (48 hours) it was over 300 µM; in data set [3], over 300 µM; in data set [4], over 300 µM; in data set [5], 68.3 µM.

As to `c1cncc(-c2nccc3c4ccccc4n(CCCCCCn4c5ccccc5c5ccnc(-c6cccnc6)c54)c23)c1` [Compound 32, 1,6-bis[1-(pyridine-3-yl)-β-carboline-9-yl) hexane], the IC50 in data set [1] (Homo sapiens) was 14.1 µM; in data set [2] (Homo sapiens, A-375, 48 hours), 5.3 µM; in data set [3] (Homo sapiens), over 300 µM; in data set [4] (Homo sapiens) it was 13.3 µM; in data set [5] (Homo sapiens), 14.9 µM.

For `Clc1ccccc1-c1nccc2c3ccccc3n(CCCCCCn3c4ccccc4c4ccnc(-c5ccccc5Cl)c43)c12` [Compound 35], the IC50 in data set [1] was over 300 µM; in data set [2] (48 hours) it was 23.2 µM; in data set [3], over 300 µM; in data set [4], over 300 µM; in data set [5], over 300 µM.

`Clc1ccccc1-c1nccc2c3ccccc3n(CCCCCCCn3c4ccccc4c4ccnc(-c5ccccc5Cl)c43)c12` [Compound 36, 1,7-bis[1-(2-chlorophenyl)-β-carboline-9-yl) heptane]: the IC50 was over 300 µM in data set [1] (Homo sapiens); 10.4 µM in data set [2] (Homo sapiens, A-375, 48 hours); 82.1 µM in data set [3] (Homo sapiens); over 300 µM in data set [4] (Homo sapiens); over 300 µM in data set [5] (Homo sapiens).

For the compound `O=[N+]([O-])c1ccc(Cl)c(-c2nccc3c4ccccc4n(CCCCCCn4c5ccccc5c5ccnc(-c6cc([N+](=O)[O-])ccc6Cl)c54)c23)c1` [Compound 37, 1,6-bis[1-(2-chloro-5-nitro-phenyl)-⊕-carboline-9-yl) hexane], the IC50 in data set [1] was over 300 µM; in data set [2] (48 hours), 7 µM; in data set [3], 3.8 µM; in data set [4] it was over 300 µM; in data set [5], over 300 µM.

On to `O=[N+]([O-])c1ccc(Cl)c(-c2nccc3c4ccccc4n(CCCCCCCCCn4c5ccccc5c5ccnc(-c6cc([N+](=O)[O-])ccc6Cl)c54)c23)c1` [Compound 38, 1,9-bis[1-(2-chloro-5-nitrophenyl)-β-carboline-9-yl) nonane], for which the IC50 is over 300 µM in data set [1] (Homo sapiens); over 300 µM in data set [2] (Homo sapiens, A-375, 48 hours); 1.8 µM in data set [3] (Homo sapiens); over 300 µM in data set [4] (Homo sapiens); over 300 µM in data set [5] (Homo sapiens).

For the compound `CC(C)c1nccc2c3ccccc3n(CCCCCCCCCCn3c4ccccc4c4ccnc(C(C)C)c43)c12` [Compound 40, 1,10-bis[1-isopropyl-β-carboline-9-yl) decane], the IC50 in data set [1] (Homo sapiens) was over 300 µM; in data set [2] (Homo sapiens, A-375, 48 hours), 19.6 µM; in data set [3] (Homo sapiens) it was 4.6 µM; in data set [4] (Homo sapiens), over 300 µM; in data set [5] (Homo sapiens), over 300 µM.

For `Brc1ccc2c(c1)c1ccncc1n2CCCCn1c2ccc(Br)cc2c2ccncc21` [Compound 41, 1,4-bis[6-bromo-βcarboline-9-yl) butane], the IC50 was over 300 µM in data set [1] (Homo sapiens); over 300 µM in data set [2] (Homo sapiens, A-375, 48 hours); 3.1 µM in data set [3] (Homo sapiens); over 300 µM in data set [4] (Homo sapiens); 8.9 µM in data set [5] (Homo sapiens).
